# Test system: rat brain tissue
# Assay: Real-time fluorescence detection of Ca^2+-dependent GABA release from rat neural tissue on GABA-T/SSADH sensor
# Assay type: cell-based
# Procedure: Adult Sprague-Dawley rats about 160 grams each were injected with an overdose of Nembutal. The brains or spinal cords were removed and washed several times with PBS and then embedded with 5% low melting temperature agarose (NuSieve® GAG® agarose, FMC BioProducts, Me.). The embedded brains or spinal cords were cut with a Vibratome (VT10003, LEICA Microsystems, Germany) in 300 μm tissue sections. Each tissue section was placed on a GABA-T/SSADH fluorometric silica glass sensor and then GABA released from the tissue sections were measured with Fluoroskan Ascent (Labsystems, Finland).
# The silica glass sensors of the present invention may be used to assay neural tissue and agents which affect neural tissue. […] Neural tissue, […], was cultured on GABA-T/SSADH sensors prepared inside tissue culture vessels. […] Therefore, GABA release is stimulated by Ca^2+.
# The effect of various agents on GABA release in rat neural tissue were assayed in real-time with a GABA-T/SSADH sensor. The agents tested were 2-APB (a cell-permeable IP3 receptor antagonist), Thapsigargin (a blocker of store-specific Ca^2+-ATPase), Ryanodine and caffeine (increase internal Ca^2+ level), and KN-93 (CAM kinase II inhibitor).
# FIGS. 10 and 11 show the effect of Thapsigargin and Ryanodine on Ca^2+-dependent GABA release, respectively. Therefore, the silica glass sensors of the present invention may be used for assaying the effect of various agents on cells and tissues cultured thereon.
Structure (SMILES),"less GABA release (75 μM 2-APB without 10 mM CaCl2 compared with 75 μM 2-APB with 10 mM CaCl2, FIG. 9)","effect on Ca^2+-dependent GABA release (75 μM 2-APB, rat neural tissue, FIG. 9)","GABA release versus controls (100 mM Ca^2+, rat brain tissue, FIG. 8)"
NCCOB(c1ccccc1)c1ccccc1 [2-APB],about 41.9%,inhibits Ca^2+-dependent GABA release,
[Ca+2].[Cl-].[Cl-] [Ca^2+],,,released more GABA than controls
